ChEMBL document CHEMBL3817821, “Design and synthesis of thiamine analogues to study their binding to the ECF transporter for thiamine in bacteria” (Medchemcomm, 2016)

Tests used:
[1] = Binding affinity to His8-tagged Lactococcus lactis ThiT expressed in Lactococcus lactis NZ9000 cells by intrinsic fluorescence titration assay; type: cell-based
[2] = Binding affinity to Lactococcus lactis ThiT Gly129Ala mutant
[3] = Binding affinity to His8-tagged Lactococcus lactis ThiT expressed in Lactococcus lactis NZ9000 cells by isothermal […] analysis; type: cell-based

Compound	Kd [1]	Kd [2]	Kd [3]
CCc1ncc(Cc2csc(CCO)c2C)c(N)n1	5.04 nM	–	–
Cc1ncc(C[n+]2csc(CCO)c2C)c(N)n1 [THIAMINE]	0.122 nM	33.9 nM	–
Cc1c(Cc2cncnc2N)csc1CCO	1020 nM	–	–
Cc1c(Cc2cnc(N)nc2N)csc1CCO	–	–	2920 nM
Cc1c(Cc2cnc(C(C)C)nc2N)csc1CCO	13.6 nM	–	–
Cc1c(Cc2cnc(C(F)(F)F)nc2N)csc1CCO	8.48 nM	–	–
Cc1ncc(Cc2csc(CCO)c2C)c(N)n1 [3-DEAZATHIAMINE]	4.23 nM	–	–
